Results as given in patent US20250326739A1, “CD38 MODULATORS AND USES THEREOF” (Aeovian Pharmaceuticals, Inc., priority 2022, published 2025).
Where a name gives a salt, the structure may show the parent alone.

How the values were obtained:
human CD38 = human CD38 (Homo sapiens (Human), UniProt P28907); assay: NAD+ cyclase activity assay with human recombinant CD38 protein; assay type: biochemical; conditions: 1.9 nM human CD38, 15.8 μM e-NAD substrate, fluorescence read-out
Description: (§1) Example 5: NAD^+ Cydase Activity Assay with Human or Mouse Recombinant CD38 Protein
(§2) The following assay was used to determine the ability of compounds of the invention to inhibit the hydrolysis of NAD^+ by the human or mouse enzyme, CD38.
(§3) Reaction buffer: 40 mM HEPES/NaOH pH 7.5, 250 mM sucrose, 0.01% Tween
(§4) Final concentrations: 0.6 nM mouse CD38 (4947-AC, Bio-Techne GmbH) 1.9 nM human CD38 (AVI2404, Bio-Techne GmbH)
(§5) Substrate: 15.8 μM Nicotinamide 1,N6-ethenoadenine dinucleotide (E-NAD)
(§6) Read-out: Fluorescence intensity (extinction 300 nm/emission 410 nm)
(§7) Required reaction buffer, required CD38 concentration in reaction buffer and required e-NAD concentration in reaction buffer were prepared. Thereafter, 8 μL of CD38 in reaction buffer were added to High Control and compound concentration wells in 384 well plate (Corning #4514, 384 well, nonbinding surface, low volume, round bottom) and 8 μL of reaction buffer to Low Control. Compound dilutions were transferred via pintool technology that transfers 42.5 nL compound dilutions (12-point dose-response with factor three dilutions in 100% DMSO) well-to-well. Plate was subsequently shaken for 15 s at 1450 rpm and sealed for incubation for 30 min at room temperature. Thereafter, 2 μL of e-NAD in reaction buffer were added with Integra Voyager. After shaking for 15 s at 1450 rpm, plate was sealed, and assay signal was measured continuously with PHERAstar® fluorescence intensity module (extinction 300 nm/emission 410 nm).
(§8) Dose-response curves were constructed using twelve-point factor three dilutions in triplicates per plate. High control (full enzyme activity) was set to assay signal of CD38 and e-NAD in presence of vehicle (DMSO) and Low control (full enzyme inhibition) was set to assay signal of e-NAD and vehicle (DMSO) in absence of CD38. For data analysis, fluorescent signal of traces corresponding to each compound concentration and High and Low control was monitored over time. Each run, High Control (full enzyme activity) was fitted to Linear equation via GraphPad Prism to determine CD38 activity from the slope and determine the time interval of linear phase of reaction to account for minor fluctuations. Thereafter, slopes of all compound concentrations were determined via fitting to same linear equation (GraphPad Prism) over the same time interval as determined for High control. Percentage inhibition was calculated via normalization to High and Low Control via the equation: %−inhibition=100*(1−((Sample−Low control)/(High control−Low control))) Half maximal inhibitory concentration (IC50) values are yielded from the inflection point of the corresponding curve by fitting of resulting percentage inhibition values to standard equation (4 Parameter Logistic Model or Sigmoidal Dose-Response Model) via Excel Fit. Unless otherwise stated, fitting of curves was fixed to 100%-inhibition and unlocked for 0%-inhibition.

mouse CD38 = mouse CD38 (Mus musculus (Mouse), UniProt P56528); assay: NAD+ cyclase activity assay with mouse recombinant CD38 protein; assay type: biochemical; conditions: 0.6 nM mouse CD38, 15.8 μM e-NAD substrate, fluorescence read-out
Description: as §1, §2, §3, §4, §5, §6, §7, §8

Sequence of human CD38 (P28907 whole entry): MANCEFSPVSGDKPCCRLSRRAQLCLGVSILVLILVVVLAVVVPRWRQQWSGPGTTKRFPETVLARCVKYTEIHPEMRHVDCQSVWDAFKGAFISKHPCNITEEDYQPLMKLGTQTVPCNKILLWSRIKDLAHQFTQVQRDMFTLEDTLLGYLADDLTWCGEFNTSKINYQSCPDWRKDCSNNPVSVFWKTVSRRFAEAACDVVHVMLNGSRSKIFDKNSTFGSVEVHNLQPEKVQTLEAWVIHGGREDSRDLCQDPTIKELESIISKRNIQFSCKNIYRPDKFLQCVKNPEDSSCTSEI
Sequence of mouse CD38 (P56528 whole entry): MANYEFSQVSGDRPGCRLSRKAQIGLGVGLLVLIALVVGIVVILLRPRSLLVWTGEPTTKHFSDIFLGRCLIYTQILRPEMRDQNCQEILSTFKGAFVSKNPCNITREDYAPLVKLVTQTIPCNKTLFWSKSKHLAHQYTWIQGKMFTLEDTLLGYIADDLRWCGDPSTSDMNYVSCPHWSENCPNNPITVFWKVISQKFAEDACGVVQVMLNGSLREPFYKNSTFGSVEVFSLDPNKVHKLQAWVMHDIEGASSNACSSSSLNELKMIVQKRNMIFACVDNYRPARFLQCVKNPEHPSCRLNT

SMILES	IC50 (human CD38)	IC50 (mouse CD38)
Cc1cc(C(=O)NC2CCN(S(=O)(=O)C3CCOC3)CC2)nc(-n2ccnc2)c1 (stereo not drawn) [Compound 72A, 6-(1H-Imidazol-1-yl)-4-methyl-N-(1-((tetrahydrofuran-3-yl)sulfonyl)piperidin-4-yl)picolinamide]	< 0.03 µM	< 0.001 µM
Cc1cc(C(=O)N[C@H]2COCC(F)(F)C2)nc(-n2ccnc2)c1 [Compound 66A, (R)—N-(5,5-Difluorotetrahydro-2H-pyran-3-yl)-6-(1H-imidazol-1-yl)-4-methylpicolinamide]	0.03 to 0.1 µM	< 0.001 µM
Cc1cc(C(=O)N[C@H]2COCCC2(F)F)nc(-n2ccnc2)c1 [Compound 70A, (S)—N-(4,4-Difluorotetrahydro-2H-pyran-3-yl)-6-(1H-imidazol-1-yl)-4-methylpicolinamide]	0.03 to 0.1 µM	0.001 to 0.01 µM
Cc1cc(C(=O)N[C@H]2CCCNC2)nc(-n2ccnc2)c1 [Compound 48A, (S)-6-(1H-Imidazol-1-yl)-4-methyl-N-(piperidin-3-yl)picolinamide dihydrochloride]	> 1 µM	0.01 to 0.1 µM
Cc1cc(C(=O)NC2COCCC2(F)F)nc(-n2ccnc2)c1 (stereo not drawn) [Compound 25A, N-(4,4-Difluorotetrahydro-2H-pyran-3-yl)-6-(1H-imidazol-1-yl)-4-methylpicolinamide]	0.03 to 0.1 µM	0.001 to 0.01 µM
Cc1cc(C(=O)NC2CCOC(C)(C)C2)nc(-n2ccnc2)c1 (stereo not drawn) [Compound 24A, N-(2,2-Dimethyltetrahydro-2H-pyran-4-yl)-6-(1H-imidazol-1-yl)-4-methylpicolinamide]	0.1 to 1 µM	0.001 to 0.01 µM
CS(=O)(=O)N1CCC(NC(=O)c2ccnc(-n3ccnc3)n2)CC1 [Compound 73A, 2-(1H-Imidazol-1-yl)-N-(1-(methylsulfonyl)piperidin-4-yl)pyrimidine-4-carboxamide]	< 0.03 µM	0.001 to 0.01 µM
O=C(N[C@@H]1CCS(=O)(=O)C1)c1cc(C(F)(F)F)nc(-n2ccnc2)n1 [Compound 77A, (R)—N-(1,1-Dioxidotetrahydrothiophen-3-yl)-2-(1H-imidazol-1-yl)-6-(trifluoromethyl)pyrimidine-4-carboxamide]	0.03 to 0.1 µM	0.001 to 0.01 µM
O=C(N[C@@H]1CCCOC1)c1cc(C(F)(F)F)nc(-n2ccnc2)n1 [Compound 76A, (R)-2-(1H-Imidazol-1-yl)-N-(tetrahydro-2H-pyran-3-yl)-6-(trifluoromethyl)pyrimidine-4-carboxamide]	0.03 to 0.1 µM	0.001 to 0.01 µM
CNC(=O)N1CCC(NC(=O)c2cc(C)cc(-n3ccnc3)n2)CC1 [Compound 22A, 6-(1H-Imidazol-1-yl)-4-methyl-N-(1-(methylcarbamoyl)piperidin-4-yl)picolinamide]	< 0.03 µM	0.001 to 0.01 µM
Cc1cc(C(=O)N[C@H]2CCNC2)nc(-n2ccnc2)c1 [Compound 41A, (S)-6-(1H-Imidazol-1-yl)-4-methyl-N-(pyrrolidin-3-yl)picolinamide hydrochloride]	> 1 µM	> 0.1 µM
CS(=O)(=O)N1CCC(NC(=O)c2cc(C(F)(F)F)cc(-n3ccnc3)n2)CC1 [Compound 82A, 6-(1H-Imidazol-1-yl)-N-(1-(methylsulfonyl)piperidin-4-yl)-4-(trifluoromethyl)picolinamide]	< 0.03 µM	0.001 to 0.01 µM
Cc1cc(C(=O)N[C@H]2CCCN(C)C2=O)nc(-n2ccnc2)c1 [Compound 85A, (S)-6-(1H-Imidazol-1-yl)-4-methyl-N-(1-methyl-2-oxopiperidin-3-yl)picolinamide]	0.1 to 1 µM	0.01 to 0.1 µM
Cc1cc(C(=O)NC2CCN(S(C)(=O)=O)CC2)nc(-n2ccnc2)n1 [Compound 61A, 2-(1H-Imidazol-1-yl)-6-methyl-N-(1-(methylsulfonyl)piperidin-4-yl)pyrimidine-4-carboxamide]	< 0.03 µM	< 0.001 µM
Cc1cc(C(=O)N[C@@H]2CCCNC2=O)nc(-n2ccnc2)c1 [Compound 58A, (R)-6-(1H-Imidazol-1-yl)-4-methyl-N-(2-oxopiperidin-3-yl)picolinamide]	> 1 µM	0.01 to 0.1 µM
COCCC(=O)N1CCC(NC(=O)c2cc(C)cc(-n3ccnc3)n2)CC1 [Compound 20A, 6-(1H-Imidazol-1-yl)-N-(1-(3-methoxypropanoyl)piperidin-4-yl)-4-methylpicolinamide]	0.03 to 0.1 µM	0.001 to 0.01 µM
CCCC(=O)N1CCC(NC(=O)c2cc(C)cc(-n3ccnc3)n2)CC1 [Compound 13A, N-(1-Butyrylpiperidine-4-yl)-6-(1H-imidazol-1-yl)-4-methylpicolinamide]	0.03 to 0.1 µM	0.001 to 0.01 µM
CNS(=O)(=O)N1CCC(NC(=O)c2cc(C)cc(-n3ccnc3)n2)CC1 [Compound 14A, 6-(1H-Imidazol-1-yl)-4-methyl-N-(1-(N-methylsulfamoyl)piperidin-4-yl)picolinamide]	0.1 to 1 µM	0.001 to 0.01 µM
Cc1cc(C(=O)N[C@H]2CCCS(=O)(=O)C2)nc(-n2ccnc2)c1 [Compound 84A, (S)—N-(1,1-Dioxidotetrahydro-2H-thiopyran-3-yl)-6-(1H-imidazol-1-yl)-4-methylpicolinamide]	0.1 to 1 µM	0.01 to 0.1 µM
Cc1cc(C(=O)N[C@@H]2CCCS(=O)(=O)C2)nc(-n2ccnc2)c1 [Compound 57A, (R)—N-(1,1-Dioxidotetrahydro-2H-thiopyran-3-yl)-6-(1H-imidazol-1-yl)-4-methylpicolinamide]	0.03 to 0.1 µM	0.001 to 0.01 µM
O=C(N[C@@H]1CCS(=O)(=O)C1)c1cc(C(F)(F)F)cc(-n2ccnc2)n1 [Compound 78A, (R)—N-(1,1-Dioxidotetrahydrothiophen-3-yl)-6-(1H-imidazol-1-yl)-4-(trifluoromethyl)picolinamide]	< 0.03 µM	0.001 to 0.01 µM
Cc1cc(C(=O)NC2CCN(S(=O)(=O)C3CCCCC3)CC2)nc(-n2ccnc2)c1 [Compound 5A, N-(1-(Cyclohexylsulfonyl)piperidin-4-yl)-6-(1H-imidazol-1-yl)-4-methylpicolinamide]	< 0.03 µM	0.001 to 0.01 µM
Cc1cc(C(=O)NC2COCC(F)(F)C2)nc(-n2ccnc2)c1 (stereo not drawn) [Compound 26A, N-(5,5-Difluorotetrahydro-2H-pyran-3-yl)-6-(1H-imidazol-1-yl)-4-methylpicolinamide]	0.03 to 0.1 µM	0.001 to 0.01 µM
Cc1cc(C(=O)N[C@@H]2CCCOC2)nc(-n2ccnc2)n1 [Compound 69A, (R)-2-(1H-Imidazol-1-yl)-6-methyl-N-(tetrahydro-2H-pyran-3-yl)pyrimidine-4-carboxamide]	< 0.03 µM	< 0.001 µM
Cc1cc(C(=O)N[C@H]2CCN(S(C)(=O)=O)C2)nc(-n2ccnc2)c1 [Compound 46A, (S)-6-(1H-imidazol-1-yl)-4-methyl-N-(1-(methylsulfonyl)pyrrolidin-3-yl)picolinamide]	0.1 to 1 µM	0.001 to 0.01 µM
Cc1cc(C(=O)N[C@H]2CCS(=O)(=O)C2)nc(-n2ccnc2)c1 [Compound 55A, (S)—N-(1,1-Dioxidotetrahydrothiophen-3-yl)-6-(1H-imidazol-1-yl)-4-methylpicolinamide]	0.1 to 1 µM	0.001 to 0.01 µM
Cc1cc(C(=O)NC2CCC(F)(F)CC2)nc(-n2ccnc2)c1 [Compound 8A, N-(4,4-Difluorocyclohexyl)-6-(1H-imidazol-1-yl)-4-methylpicolinamide]	< 0.03 µM	0.001 to 0.01 µM
Cc1ccc(-n2ccnc2)nc1C(=O)N[C@@H]1CCCOC1 [Compound 81A, (R)-6-(1H-Imidazol-1-yl)-3-methyl-N-(tetrahydro-2H-pyran-3-yl)picolinamide]	0.1 to 1 µM	0.01 to 0.1 µM
Cc1cc(C(=O)NC2CCCS(=O)(=O)C2)nc(-n2ccnc2)c1 (stereo not drawn) [Compound 36A, N-(1,1-Dioxidotetrahydro-2H-thiopyran-3-yl)-6-(1H-imidazol-1-yl)-4-methylpicolinamide]	0.1 to 1 µM	0.001 to 0.01 µM
Cc1cc(C(=O)N[C@H]2CCCNC2=O)nc(-n2ccnc2)c1 [Compound 60A, (S)-6-(1H-Imidazol-1-yl)-4-methyl-N-(2-oxopiperidin-3-yl)picolinamide]	0.1 to 1 µM	0.001 to 0.01 µM
